Assay results published in the supplement of paper PMC11061612.

Key:
[1] = tested on: HT55 (Colorectal Carcinoma); assay: combination Emax (second highest fraction inhibited in the dose matrix, 72 h); higher = more inhibition; extreme values may be limits of the assay
In short: (§1)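 Bliss excess equals the observed combination effect minus the expected value EA + EB − EA·EB, where EA and EB are the effects of each agent alone. Combination Emax is the second-highest inhibition within the matrix. Inhibition was scaled from CellTiter-Glo 2.0 luminescence, with 0 set by vehicle wells and 1 by blank wells, after 72 hours of two-drug dosing of cells plated in 1536-well plates.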

[2] = tested on: LS-411N (Colorectal Carcinoma); assay: as above
In short: as §1

[3] = tested on: HCC1395 (Breast Carcinoma); assay: as above
In short: as §1

WM1552C (Melanoma) = assay: as above
In short: as §1

[4] = tested on: ESO26 (Esophageal Adenocarcinoma); assay: as above
In short: as §1

HCC70 (Breast Carcinoma) = assay: Bliss excess, mean over the matrix (fraction); higher = more synergy
In short: as §1

[5] = tested on: JHH-2 (Hepatocellular Carcinoma); assay: as above
In short: as §1

[6] = tested on: JIMT-1 (Breast Carcinoma); assay: as above
In short: as §1

[7] = tested on: HCC1428 (Breast Carcinoma); assay: as above
In short: as §1

[8] = tested on: NCI-H1651 (Lung Adenocarcinoma); assay: as above
In short: as §1

[9] = tested on: DU-4475 (Breast Carcinoma); assay: as above
In short: as §1

IM-9 (Non-Cancerous) = assay: as above
In short: as §1

EW-7 (Ewing's Sarcoma) = assay: as above
In short: as §1

[10] = tested on: CAL-27 (Oral Cavity Carcinoma); assay: as above
In short: as §1

[11] = tested on: KYSE-220 (Esophageal Squamous Cell Carcinoma); assay: as above
In short: as §1

[12] = tested on: EPLC-272H (Other Solid Carcinomas); assay: as above
In short: as §1

EB2 (Burkitt's Lymphoma) = assay: as above
In short: as §1

[13] = tested on: NCI-H716 (Colorectal Carcinoma); assay: as above
In short: as §1

769-P (Kidney Carcinoma) = assay: as above
In short: as §1

EW-16 (Ewing's Sarcoma) = assay: as above
In short: as §1

SMILES | combination Emax [1] | combination Emax [2] | combination Emax [3] | combination Emax (WM1552C (Melanoma)) | combination Emax [4] | Bliss excess (HCC70 (Breast Carcinoma)) | Bliss excess [5] | Bliss excess [6] | Bliss excess [7] | Bliss excess [8] | Bliss excess [9] | Bliss excess (IM-9 (Non-Cancerous)) | Bliss excess (EW-7 (Ewing's Sarcoma)) | Bliss excess [10] | Bliss excess [11] | Bliss excess [12] | Bliss excess (EB2 (Burkitt's Lymphoma)) | Bliss excess [13] | Bliss excess (769-P (Kidney Carcinoma)) | Bliss excess (EW-16 (Ewing's Sarcoma))
COc1cccc(OCCCN)c1-c1cc(Nc2cnc(C#N)cn2)n[nH]1 [Prexasertib] + CCc1c2c(nc3ccc(O)cc13)-c1cc3c(c(=O)n1C2)COC(=O)[C@]3(O)CC [SN-38] (first compound max 1 µM, 7x7, partner max 0.3 µM) | 0.863 | 0.867 | 0.898 | 0.833 | 0.76 | -0.0259 | 0.0002 | 0.0096 | 0.045 | -0.0551 | 0.0035 | 0.0077 | -0.0713 | 0.0083 | -0.0153 | -0.0229 | -0.0439 | 0.0825 | -0.0688 | -0.0002
COc1cccc(OCCCN)c1-c1cc(Nc2cnc(C#N)cn2)n[nH]1 [Prexasertib] + CN(C)CCCOc1ccc(-c2ccc3ncc4c(c3c2)n(C2CCOCC2)c(=O)n4C)cn1 [AZD0156] (first compound max 1 µM, 7x7, partner max 1 µM) | 0.614 | 0.782 | 0.857 | 0.844 | 0.571 | -0.0319 | -0.0371 | 0.0375 | -0.0703 | -0.107 | -0.0171 | -0.0022 | 0.025 | -0.0014 | -0.026 | -0.0602 | -0.0088 | 0.025 | 0.0193 | 0.023
COc1cccc(OCCCN)c1-c1cc(Nc2cnc(C#N)cn2)n[nH]1 [Prexasertib] + C[C@@H]1COCCN1C2=NC(=NC(=C2)C3(CC3)[S@](=N)(=O)C)C4=C5C=CNC5=NC=C4 [AZD6738] (first compound max 1 µM, 7x7, partner max 10 µM) | 0.65 | 0.795 | 0.86 | 0.743 | 0.541 | -0.0133 | -0.0136 | 0.0026 | -0.02 | -0.0439 | -0.022 | -0.003 | -0.0437 | 0.0227 | -0.0294 | -0.0656 | -0.0478 | -0.0432 | 0.0022 | 0.0053
COc1cccc(OCCCN)c1-c1cc(Nc2cnc(C#N)cn2)n[nH]1 [Prexasertib] + Cc1cc2ncnn2cc1Nc1ncc2c(n1)n(C1CCOCC1)c(=O)n2C [AZD7648] (first compound max 1 µM, 7x7, partner max 10 µM) | 0.65 | 0.753 | 0.855 | 0.763 | 0.504 | -0.0053 | -0.0348 | -0.0205 | -0.0714 | -0.132 | 0.0256 | -0.014 | -0.0118 | 0.0291 | -0.0308 | -0.0481 | -0.0306 | 0.0577 | -0.038 | 0.0156
COc1cccc(OCCCN)c1-c1cc(Nc2cnc(C#N)cn2)n[nH]1 [Prexasertib] + O=C(c1cc(Cc2n[nH]c(=O)c3ccccc23)ccc1F)N1CCN(C(=O)C2CC2)CC1 [Olaparib] (first compound max 1 µM, 7x7, partner max 10 µM) | 0.65 | 0.498 | 0.88 | 0.711 | 0.56 | -0.0503 | -0.0428 | -0.0182 | 0.0501 | -0.0471 | -0.0174 | 0.0046 | -0.0465 | -0.0113 | -0.0238 | -0.0631 | -0.0373 | -0.0673 | -0.118 | 0.0036
CCc1c2c(nc3ccc(O)cc13)-c1cc3c(c(=O)n1C2)COC(=O)[C@]3(O)CC [SN-38] + CN(C)CCCOc1ccc(-c2ccc3ncc4c(c3c2)n(C2CCOCC2)c(=O)n4C)cn1 [AZD0156] (first compound max 0.3 µM, 7x7, partner max 1 µM) | 0.449 | 0.363 | 0.512 | 0.59 | 0.655 | 0.0152 | 0.0204 | 0.0056 | -0.0584 | -0.021 | 0.0129 | 0.0891 | 0.0647 | 0.0255 | 0.0574 | 0.0536 | 0.0238 | 0.0129 | 0.018 | 0.0385
Cn1cnc2c(F)c(Nc3ccc(Br)cc3Cl)c(C(=O)NOCCO)cc21 [Selumetinib] + C=CCn1c(=O)c2cnc(Nc3ccc(N4CCN(C)CC4)cc3)nc2n1-c1cccc(C(C)(C)O)n1 [AZD1775] (first compound max 10 µM, partner max 1 µM) | 0.792 | 0.794 | 0.425 | 0.458 | 0.678 | 0.0361 | -0.0571 | -0.0606 | -0.0409 | -0.0692 | -0.0196 | -0.045 | -0.0115 | 0.0384 | -0.0391 | -0.0607 | -0.071 | -0.0992 | -0.0944 | -0.0214
Cn1cnc2c(F)c(Nc3ccc(Br)cc3Cl)c(C(=O)NOCCO)cc21 [Selumetinib] + CC(C)n1c(=O)n(C)c2cnc3cc(F)c(-c4ccc(OCCCN5CCCCC5)nc4)cc3c21 [AZD1390] (first compound max 10 µM, 7x7, partner max 0.3 µM) | 0.669 | 0.666 | 0.192 | 0.384 | 0.115 | 0.0225 | -0.0357 | -0.0471 | -0.0333 | -0.0305 | -0.0112 | -0.0603 | -0.0117 | -0.0489 | 0.0022 | -0.0442 | -0.0532 | 0.0093 | 0.0125 | -0.0582
Cn1cnc2c(F)c(Nc3ccc(Br)cc3Cl)c(C(=O)NOCCO)cc21 [Selumetinib] + CCN(CCO)CCCOc1ccc2c(Nc3cc(CC(=O)Nc4cccc(F)c4)[nH]n3)ncnc2c1 [AZD2811] (first compound max 10 µM, 7x7, partner max 1 µM) | 0.741 | 0.786 | 0.212 | 0.439 | 0.212 | 0.0138 | -0.0193 | -0.0403 | 0.0269 | -0.0283 | 0.0351 | -0.032 | -0.0023 | -0.0921 | 0.036 | 0.0426 | -0.0564 | 0.044 | -0.0062 | -0.0221
Cn1cnc2c(F)c(Nc3ccc(Br)cc3Cl)c(C(=O)NOCCO)cc21 [Selumetinib] + C[C@@H]1COCCN1C2=NC(=NC(=C2)C3(CC3)[S@](=N)(=O)C)C4=C5C=CNC5=NC=C4 [AZD6738] (first compound max 10 µM, 7x7, partner max 10 µM) | 0.735 | 0.808 | 0.571 | 0.59 | 0.486 | 0.0731 | 0.0264 | -0.0853 | -0.0527 | -0.0638 | -0.0103 | -0.0817 | 0.0112 | 0.0939 | -0.0446 | -0.0497 | -0.071 | -0.0341 | -0.0122 | -0.0914
CC(=O)Nc1cccc(-n2c(=O)n(C3CC3)c(=O)c3c(Nc4ccc(I)cc4F)n(C)c(=O)c(C)c32)c1 [Trametinib] + Cc1nc(-c2cn3c(n2)-c2ccc(-c4cnn(C(C)(C)C(N)=O)c4)cc2OCC3)n(C(C)C)n1 [Taselisib] (first compound max 1 µM, 7x7, partner max 10 µM) | 0.859 | 0.946 | 0.654 | 0.908 | 0.746 | 0.149 | -0.0221 | 0.11 | 0.0116 | 0.0354 | 0.0664 | 0.0008 | 0.0479 | 0.128 | 0.152 | 0.041 | 0.0658 | 0.325 | 0.0182 | 0.0772
CC1(C)CCC(CN2CCN(c3ccc(C(=O)NS(=O)(=O)c4ccc(NCC5CCOCC5)c([N+](=O)[O-])c4)c(Oc4cnc5[nH]ccc5c4)c3)CC2)=C(c2ccc(Cl)cc2)C1 [Venetoclax] + C1CN(CCC1(C(=O)N[C@@H](CCO)C2=CC=C(C=C2)Cl)N)C3=NC=NC4=C3C=CN4 [Capivasertib] (first compound max 1 µM, 7x7, partner max 3 µM) | 0.363 | 0.305 | 0.662 | 0.469 | 0.311 | -0.0437 | 0.0139 | -0.0836 | -0.0377 | -0.0184 | 0.0239 | 0.0533 | -0.0149 | -0.0432 | -0.0023 | -0.0465 | -0.0286 | -0.0595 | -0.0433 | -0.0498
CC1(C)CCC(CN2CCN(c3ccc(C(=O)NS(=O)(=O)c4ccc(NCC5CCOCC5)c([N+](=O)[O-])c4)c(Oc4cnc5[nH]ccc5c4)c3)CC2)=C(c2ccc(Cl)cc2)C1 [Venetoclax] + C=CCn1c(=O)c2cnc(Nc3ccc(N4CCN(C)CC4)cc3)nc2n1-c1cccc(C(C)(C)O)n1 [AZD1775] (first compound max 1 µM, partner max 1 µM) | 0.664 | 0.55 | 0.81 | 0.785 | 0.682 | 0.0562 | 0.0531 | -0.0568 | -0.0386 | -0.0218 | -0.0262 | 0.0228 | 0.0406 | -0.0321 | -0.0321 | -0.025 | 0.063 | 0.0214 | -0.0081 | -0.0504
